According to ChEMBL document CHEMBL1201862, “PubChem BioAssay data set” (2004):
The source made the active and inactive calls.

Columns and labels:
[1] = molecular target: T1, Mannose-6-phosphate isomerase (Homo sapiens, UniProt P34949); assay: MPI inhibition at elevated mannose 6-phosphate – biochemical, fluorescence intensity, high mannose 6-phosphate, primary screen (AID 1220)
T1 sequence (P34949 whole entry): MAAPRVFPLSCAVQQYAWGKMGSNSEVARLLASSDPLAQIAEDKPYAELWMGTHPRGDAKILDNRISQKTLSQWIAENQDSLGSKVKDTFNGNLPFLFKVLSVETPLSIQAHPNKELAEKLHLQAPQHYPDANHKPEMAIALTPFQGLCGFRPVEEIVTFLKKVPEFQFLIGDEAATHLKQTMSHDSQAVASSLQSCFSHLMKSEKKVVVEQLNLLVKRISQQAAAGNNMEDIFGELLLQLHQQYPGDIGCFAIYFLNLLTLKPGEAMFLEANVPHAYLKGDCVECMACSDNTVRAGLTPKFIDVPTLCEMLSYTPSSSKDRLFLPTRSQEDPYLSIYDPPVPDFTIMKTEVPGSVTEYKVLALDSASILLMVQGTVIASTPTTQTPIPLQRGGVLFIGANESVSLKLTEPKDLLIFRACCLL

[2] = molecular target: T2, Heat shock factor protein 1 (Mus musculus, UniProt P38532); assay: enhancement of HSF1-driven luciferase signal – cell-based, NIH3T3, luminescence, dose retest, confirmation (AID 435004); format: functional;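 further: stress induced by proteasome inhibitor MG132 added 30 min after compound; luciferase reporter driven by HSF1 response element in NIH3T3 cells; actives raise luminescence as potentiators of the MG132 stress response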
T2 sequence (P38532 whole entry): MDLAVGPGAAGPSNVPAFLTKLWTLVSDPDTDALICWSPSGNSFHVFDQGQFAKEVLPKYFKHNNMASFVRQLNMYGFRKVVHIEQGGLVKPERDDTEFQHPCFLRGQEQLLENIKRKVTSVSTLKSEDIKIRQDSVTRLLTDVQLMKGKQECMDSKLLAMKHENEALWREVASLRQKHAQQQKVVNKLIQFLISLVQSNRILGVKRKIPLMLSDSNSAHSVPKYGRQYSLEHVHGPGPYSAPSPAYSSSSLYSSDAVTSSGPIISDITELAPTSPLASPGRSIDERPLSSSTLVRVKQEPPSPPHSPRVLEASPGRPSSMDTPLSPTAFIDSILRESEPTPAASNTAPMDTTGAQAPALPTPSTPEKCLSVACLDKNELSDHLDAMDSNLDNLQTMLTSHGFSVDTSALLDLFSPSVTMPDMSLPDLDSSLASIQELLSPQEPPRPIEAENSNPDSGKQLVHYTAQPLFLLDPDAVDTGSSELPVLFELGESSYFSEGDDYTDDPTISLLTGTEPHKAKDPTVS

Protein RecA = molecular target: T3, Protein RecA (Mycobacterium tuberculosis, UniProt P9WHJ3); assay: Fluorescence Cell-Free Homogeneous Dose Retest to Identify Inhibitors of RecA-Intein Splicing Activity. [Related pubchem assays (depositor defined):AID2097, AID2223, AID489010, AID492950]; format: functional
T3 sequence (P9WHJ3 whole entry): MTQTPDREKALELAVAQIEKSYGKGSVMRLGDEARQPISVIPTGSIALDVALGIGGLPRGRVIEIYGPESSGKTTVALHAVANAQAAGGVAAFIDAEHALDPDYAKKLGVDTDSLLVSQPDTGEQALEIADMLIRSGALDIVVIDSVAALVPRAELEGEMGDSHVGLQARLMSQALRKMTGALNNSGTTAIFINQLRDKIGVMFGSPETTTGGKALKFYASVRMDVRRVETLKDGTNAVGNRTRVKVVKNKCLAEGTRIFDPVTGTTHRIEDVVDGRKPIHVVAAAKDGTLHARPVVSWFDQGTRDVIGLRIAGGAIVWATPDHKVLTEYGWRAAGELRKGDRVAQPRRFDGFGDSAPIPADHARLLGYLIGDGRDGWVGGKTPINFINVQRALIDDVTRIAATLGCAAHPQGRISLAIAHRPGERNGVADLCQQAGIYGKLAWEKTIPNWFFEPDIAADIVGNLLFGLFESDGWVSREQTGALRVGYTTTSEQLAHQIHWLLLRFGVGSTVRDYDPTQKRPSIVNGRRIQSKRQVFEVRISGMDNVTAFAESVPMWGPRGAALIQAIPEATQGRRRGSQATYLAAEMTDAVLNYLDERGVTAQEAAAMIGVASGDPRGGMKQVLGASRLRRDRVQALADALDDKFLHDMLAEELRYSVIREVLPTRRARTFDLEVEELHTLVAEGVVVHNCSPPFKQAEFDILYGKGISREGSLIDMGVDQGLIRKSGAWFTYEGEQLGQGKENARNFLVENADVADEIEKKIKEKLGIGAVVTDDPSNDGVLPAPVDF

[3] = molecular target: T4, Adenosylmethionine-8-amino-7-oxononanoate aminotransferase (Mycobacterium tuberculosis, UniProt P9WQ81); assay: Mycobacterium tuberculosis BioA enzyme inhibitor Measured in Biochemical System Using Plate Reader - 2163-02_Inhibitor_Dose_CherryPick_Activity.; format: functional, Mycobacterium tuberculosis UT205
T4 sequence (P9WQ81 whole entry): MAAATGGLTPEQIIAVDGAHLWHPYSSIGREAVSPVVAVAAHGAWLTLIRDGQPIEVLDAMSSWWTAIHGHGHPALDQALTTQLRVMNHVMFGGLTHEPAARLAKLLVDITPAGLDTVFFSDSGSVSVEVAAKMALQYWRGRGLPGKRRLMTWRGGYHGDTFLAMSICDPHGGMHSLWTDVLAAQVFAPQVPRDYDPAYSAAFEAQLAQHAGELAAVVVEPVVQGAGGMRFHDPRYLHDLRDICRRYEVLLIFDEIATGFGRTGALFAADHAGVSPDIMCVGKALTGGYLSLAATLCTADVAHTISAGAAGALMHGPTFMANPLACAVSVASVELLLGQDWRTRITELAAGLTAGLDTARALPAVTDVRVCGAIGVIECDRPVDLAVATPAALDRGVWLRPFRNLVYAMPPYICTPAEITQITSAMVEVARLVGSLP

[4] = molecular target: Peroxisome proliferator-activated receptor gamma/Nuclear receptor coactivator 2 (Homo sapiens, UniProt P37231); format: functional;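 further: agonist potency for raising coactivator recruitment to the receptor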
[5] = molecular target: Peroxisome proliferator-activated receptor gamma/Nuclear receptor coactivator 1 (Homo sapiens, UniProt P37231); format: functional;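 further: agonist potency as compounds enhance coactivator SRC-1 recruitment to PPARgamma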
[6] = molecular target: Peroxisome proliferator-activated receptor gamma/Nuclear receptor coactivator 3 (Homo sapiens, UniProt P37231); format: functional;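 further: agonist potency for raising coactivator recruitment to the receptor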
[7] = molecular target: Induced myeloid leukemia cell differentiation protein Mcl-1 (Homo sapiens, UniProt Q07820); format: functional
[8] = A549 cell cytotoxicity, dose response, cytotoxicity control, plate reader, cherry-pick, antagonist series (AID 743412); format: functional, cell-based
[9] = blockers of bursicon-stimulated LGR2 cAMP reporter – cell-based, HEK293, CRE-luciferase reporter, cherry pick, set 2, dose response (AID 743343); format: functional;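 further: transfected cells were stimulated with diluted bursicon conditioned medium after compound addition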
[10] = blockade of melanocortin 4 receptor signaling – cell-based, plate reader, cherry pick, counter-screen for LGR2 antagonist project, dose response (AID 743444); format: functional;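 further: transfected HEK 293 cells stimulated with alpha-MSH peptide; potency of inhibitors of the alpha-MSH evoked signal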
[11] = HEK-293T viability loss after treatment – luminescence, T-cell screen hits, cytotoxicity control for TCR NF-kB inhibitor project, dose response (AID 489026); format: functional, cell-based;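 further: cells exposed to compound about 14 hours before the viability readout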
[12] = reduction of Shn3 3'UTR-driven luciferase in osteoblasts – cell-based, Clone20 osteoblasts, firefly luciferase, cherry-picked, dose response (AID 624132); format: functional;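 further: firefly luciferase luminescence from reporter carrying the Shn3 3'UTR in osteoblasts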
[13] = loss of viability in HepG2 cells – cell-based, CellTiter-Glo, cherry-picked, cytotoxicity control for Shn3 inhibitor project, dose response (AID 624134); format: functional
[14] = non-specific 3'UTR reporter inhibition in Clone20-Shn3RL – cell-based, Renilla luciferase, cherry-picked, counter-screen for Shn3 inhibitor project, dose response (AID 624133); format: functional
Protein Wnt-3a = Protein Wnt-3a (Mus musculus, UniProt P27467); assay: antagonism of Wnt3a pathway luciferase reporter – Wnt-LIGHT cells, luminescence, selectivity assay for Gli-SUFU antagonist project, dose response (AID 651570); format: functional; settings: read-out: IC50_Mean;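 further: Wnt-LIGHT reporter cells stimulated with conditioned medium from Wnt3a-producing cells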
Beta-galactosidase = Beta-galactosidase (Escherichia coli, UniProt Q8VNN2); assay: Dose response counterscreen for EBI2 assay utilizing the enzyme, b-galactosidase.; format: functional

Peroxisome proliferator-activated receptor gamma/Nuclear receptor coactivator 3, sequence (P37231 whole entry): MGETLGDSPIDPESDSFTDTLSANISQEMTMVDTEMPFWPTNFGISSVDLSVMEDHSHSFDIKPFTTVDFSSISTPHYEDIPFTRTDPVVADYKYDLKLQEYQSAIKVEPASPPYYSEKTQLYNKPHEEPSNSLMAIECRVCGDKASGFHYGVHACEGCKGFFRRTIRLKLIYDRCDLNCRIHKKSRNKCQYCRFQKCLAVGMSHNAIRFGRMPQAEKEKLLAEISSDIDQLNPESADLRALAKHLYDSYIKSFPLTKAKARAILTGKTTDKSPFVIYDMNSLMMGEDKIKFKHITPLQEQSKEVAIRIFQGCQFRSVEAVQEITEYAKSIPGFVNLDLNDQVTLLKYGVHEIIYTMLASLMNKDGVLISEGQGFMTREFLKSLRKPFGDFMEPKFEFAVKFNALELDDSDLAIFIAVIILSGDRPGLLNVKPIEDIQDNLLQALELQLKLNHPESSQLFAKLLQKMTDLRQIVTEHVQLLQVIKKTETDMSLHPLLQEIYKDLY
Peroxisome proliferator-activated receptor gamma/Nuclear receptor coactivator 3, sequence (Q9Y6Q9 whole entry, further chain): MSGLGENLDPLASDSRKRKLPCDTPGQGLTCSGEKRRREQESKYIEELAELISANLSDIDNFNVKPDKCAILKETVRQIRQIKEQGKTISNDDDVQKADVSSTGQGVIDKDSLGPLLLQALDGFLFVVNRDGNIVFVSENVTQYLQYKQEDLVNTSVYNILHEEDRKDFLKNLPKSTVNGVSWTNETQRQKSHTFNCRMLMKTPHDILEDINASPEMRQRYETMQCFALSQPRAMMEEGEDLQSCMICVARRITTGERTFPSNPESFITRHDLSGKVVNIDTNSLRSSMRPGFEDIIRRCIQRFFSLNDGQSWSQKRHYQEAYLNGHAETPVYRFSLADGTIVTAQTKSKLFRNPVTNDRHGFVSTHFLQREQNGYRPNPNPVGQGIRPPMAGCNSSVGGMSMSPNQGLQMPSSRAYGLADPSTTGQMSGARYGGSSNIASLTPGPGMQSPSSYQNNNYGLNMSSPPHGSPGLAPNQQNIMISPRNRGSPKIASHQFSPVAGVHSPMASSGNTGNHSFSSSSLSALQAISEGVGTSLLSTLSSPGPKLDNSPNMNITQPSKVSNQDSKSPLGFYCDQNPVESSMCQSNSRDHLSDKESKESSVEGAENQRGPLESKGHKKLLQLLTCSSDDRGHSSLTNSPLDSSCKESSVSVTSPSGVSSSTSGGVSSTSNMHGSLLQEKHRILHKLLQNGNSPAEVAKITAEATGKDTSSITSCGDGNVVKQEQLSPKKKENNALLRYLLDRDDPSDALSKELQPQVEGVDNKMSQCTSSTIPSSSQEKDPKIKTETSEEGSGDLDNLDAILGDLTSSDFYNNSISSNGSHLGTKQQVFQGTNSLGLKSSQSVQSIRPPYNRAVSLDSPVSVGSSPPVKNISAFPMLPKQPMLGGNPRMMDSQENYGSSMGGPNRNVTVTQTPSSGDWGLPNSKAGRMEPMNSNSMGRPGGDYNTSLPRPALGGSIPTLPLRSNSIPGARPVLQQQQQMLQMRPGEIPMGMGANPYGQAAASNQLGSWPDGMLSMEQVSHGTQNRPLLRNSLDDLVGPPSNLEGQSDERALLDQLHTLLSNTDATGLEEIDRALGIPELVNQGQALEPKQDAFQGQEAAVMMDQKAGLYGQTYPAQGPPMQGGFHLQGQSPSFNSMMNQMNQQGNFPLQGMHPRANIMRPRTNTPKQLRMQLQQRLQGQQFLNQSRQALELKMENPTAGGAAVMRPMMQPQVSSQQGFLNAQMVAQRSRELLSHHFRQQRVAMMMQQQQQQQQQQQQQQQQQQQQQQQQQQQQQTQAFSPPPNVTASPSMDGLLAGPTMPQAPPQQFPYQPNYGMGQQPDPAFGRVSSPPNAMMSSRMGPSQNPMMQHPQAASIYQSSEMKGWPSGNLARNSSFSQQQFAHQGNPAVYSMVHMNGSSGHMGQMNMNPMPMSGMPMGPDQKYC
Peroxisome proliferator-activated receptor gamma/Nuclear receptor coactivator 2, sequence (P37231 whole entry): as the sequence (P37231 whole entry) above
Peroxisome proliferator-activated receptor gamma/Nuclear receptor coactivator 2, sequence (Q15596 whole entry, further chain): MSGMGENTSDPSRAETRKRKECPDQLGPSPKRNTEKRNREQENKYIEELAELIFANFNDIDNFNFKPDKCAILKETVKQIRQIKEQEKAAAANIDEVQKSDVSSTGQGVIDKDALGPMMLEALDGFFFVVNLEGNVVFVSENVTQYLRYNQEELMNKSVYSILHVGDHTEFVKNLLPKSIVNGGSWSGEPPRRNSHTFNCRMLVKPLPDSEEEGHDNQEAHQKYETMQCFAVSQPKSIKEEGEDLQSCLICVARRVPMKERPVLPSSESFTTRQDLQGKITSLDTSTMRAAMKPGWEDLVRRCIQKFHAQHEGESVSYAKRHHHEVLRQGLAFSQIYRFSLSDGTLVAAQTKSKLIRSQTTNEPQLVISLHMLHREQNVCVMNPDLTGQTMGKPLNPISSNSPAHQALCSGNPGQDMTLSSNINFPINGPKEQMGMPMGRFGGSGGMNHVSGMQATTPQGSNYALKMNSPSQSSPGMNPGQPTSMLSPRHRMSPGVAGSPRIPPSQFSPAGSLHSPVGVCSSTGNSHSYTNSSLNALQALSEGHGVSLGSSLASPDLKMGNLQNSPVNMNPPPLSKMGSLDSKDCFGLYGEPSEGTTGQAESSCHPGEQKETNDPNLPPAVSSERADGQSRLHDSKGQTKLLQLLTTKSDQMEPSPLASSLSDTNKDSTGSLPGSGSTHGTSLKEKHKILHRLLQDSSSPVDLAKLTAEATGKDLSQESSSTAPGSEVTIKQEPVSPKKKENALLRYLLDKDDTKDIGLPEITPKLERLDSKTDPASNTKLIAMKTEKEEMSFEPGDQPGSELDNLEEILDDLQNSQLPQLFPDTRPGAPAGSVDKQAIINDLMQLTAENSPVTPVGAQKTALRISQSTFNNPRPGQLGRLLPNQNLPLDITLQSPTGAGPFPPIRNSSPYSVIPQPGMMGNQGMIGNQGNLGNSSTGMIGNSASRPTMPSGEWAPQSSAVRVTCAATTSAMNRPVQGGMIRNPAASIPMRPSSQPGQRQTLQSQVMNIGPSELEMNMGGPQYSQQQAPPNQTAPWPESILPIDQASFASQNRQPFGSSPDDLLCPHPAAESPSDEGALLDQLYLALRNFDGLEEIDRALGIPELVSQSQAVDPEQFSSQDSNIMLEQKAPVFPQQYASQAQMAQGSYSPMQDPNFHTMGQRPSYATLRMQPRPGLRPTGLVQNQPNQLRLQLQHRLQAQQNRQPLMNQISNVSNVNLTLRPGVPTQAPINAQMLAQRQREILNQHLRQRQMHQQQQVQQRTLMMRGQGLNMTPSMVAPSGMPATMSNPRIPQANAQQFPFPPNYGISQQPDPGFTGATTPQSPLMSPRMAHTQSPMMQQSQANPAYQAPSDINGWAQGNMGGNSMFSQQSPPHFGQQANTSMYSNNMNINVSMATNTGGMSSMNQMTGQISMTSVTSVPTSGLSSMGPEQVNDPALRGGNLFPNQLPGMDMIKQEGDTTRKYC
Protein Wnt-3a, sequence (P27467 whole entry): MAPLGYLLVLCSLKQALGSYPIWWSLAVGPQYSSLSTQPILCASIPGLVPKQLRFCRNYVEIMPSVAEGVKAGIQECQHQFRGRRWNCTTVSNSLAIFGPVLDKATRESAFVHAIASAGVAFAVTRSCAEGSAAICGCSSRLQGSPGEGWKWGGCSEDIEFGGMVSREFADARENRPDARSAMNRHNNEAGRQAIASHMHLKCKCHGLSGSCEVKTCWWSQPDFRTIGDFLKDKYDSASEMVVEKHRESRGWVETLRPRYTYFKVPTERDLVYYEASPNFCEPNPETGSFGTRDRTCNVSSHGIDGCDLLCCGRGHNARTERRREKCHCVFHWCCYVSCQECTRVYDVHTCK
Induced myeloid leukemia cell differentiation protein Mcl-1, sequence (Q07820 whole entry): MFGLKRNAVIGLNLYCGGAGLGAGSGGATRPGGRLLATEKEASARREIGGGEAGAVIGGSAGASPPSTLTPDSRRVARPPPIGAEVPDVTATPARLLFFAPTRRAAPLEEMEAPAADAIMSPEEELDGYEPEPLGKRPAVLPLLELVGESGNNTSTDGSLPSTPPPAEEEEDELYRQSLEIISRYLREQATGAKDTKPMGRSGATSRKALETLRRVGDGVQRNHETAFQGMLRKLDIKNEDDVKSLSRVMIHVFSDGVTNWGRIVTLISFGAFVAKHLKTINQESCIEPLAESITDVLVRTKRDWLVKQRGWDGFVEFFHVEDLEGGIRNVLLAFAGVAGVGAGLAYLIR

CCCCn1c(NC(=O)c2ccco2)c(S(=O)(=O)c2ccc(C)cc2)c2nc3ccccc3nc21
IC50 [1]: > 50 µM (not active)
EC50 [2]: 152 µM (active)
EC50 (Protein RecA): > 380 µM (inactive)

COc1ccc(CCNC(=O)c2cnc3n(c2=O)CCS3)cc1OC
AC50 [3]: 13.7 µM (active)

CN(CP(=O)(O)CN(C)S(C)(=O)=O)S(C)(=O)=O
EC50 [4]: > 79.4 µM (not active)
EC50 [5]: > 79.4 µM (not active)
EC50 [6]: > 79.4 µM (not active)

CSc1nc(N(C)CCO)c2sc3nc(-c4ccco4)c4c(c3c2n1)CCC4
IC50 [7]: 5.59 µM (active)

COc1cc(-c2nc3ccccc3nc2-c2ccc(O)c(OC)c2)ccc1O
AC50 [3]: 3.99 µM (active)

CCOc1ccc(NC(S)=Nc2cccc3cnccc23)cc1
IC50 [1]: > 50 µM (not active)

CCCCc1ccc(NC(=O)c2cnccn2)cc1
AC50 [8]: > 52 µM (inactive)
AC50 [9]: 12.4 µM (active)
AC50 [10]: 9.42 µM (active)

CCCCc1ccc(NC(=O)C(=O)NCCN2CCN(Cc3ccc([N+](=O)[O-])cc3)CC2)cc1
IC50 [11]: > 80 µM (inactive)
AC50 [12]: 1.13 µM (active)
AC50 [13]: 64.2 µM (active)
AC50 [14]: 4.92 µM (active)
IC50 (Protein Wnt-3a): 1.8 µM (active)

CCN(CC)c1ccc(NC(=S)Nc2ccc(F)cc2)cc1
IC50 [1]: > 50 µM (not active)

O=[N+]([O-])c1ccc(NN=Cc2cc(Br)ccc2O)nc1
IC50 (Beta-galactosidase): 39.2 µM (active)
